Laboratory results: the supplement of paper PMC10307832

Tests used:
Assay in all cases: relative viability (nuclei count vs DMSO), 5 days (fraction); higher = more cells survive
[1] = compound: CCN(CCO)CCCC(C)Nc1ccnc2cc(Cl)ccc12 [Hydroxychloroquine] + O=C(CCCCCCC(=O)Nc1ccccc1)NO [Vorinostat] (partner 1 µM)
Outline: (§1)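 For relative viability, nuclei counts in treated wells were divided by those in vehicle wells. Lung cancer cell lines had been pin-tool dosed in 1536-well plates the day after seeding and cultured for 5 days, then fixed and stained in one step (final 0.05% Triton X-100, 1% formaldehyde, 1 ug/ml Hoechst) and imaged at 4×. Doses were one drug alone or a fixed anchor-drug dose plus five library-drug doses (not always all listed) in √10 steps, and values are duplicate-plate medians.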

[2] = compound: CCN(CCO)CCCC(C)Nc1ccnc2cc(Cl)ccc12 [Hydroxychloroquine] + Cc1nc(Nc2ncc(C(=O)Nc3c(C)cccc3Cl)s2)cc(N2CCN(CCO)CC2)n1 [Dasatinib] (partner 0.075 µM)
Outline: as §1

[3] = compound: CCN(CCO)CCCC(C)Nc1ccnc2cc(Cl)ccc12 [Hydroxychloroquine] + CS(=O)(=O)N1CCN(Cc2cc3nc(-c4cccc5[nH]ncc45)nc(N4CCOCC4)c3s2)CC1 [Pictilisib] (partner 1 µM)
Outline: as §1

[4] = compound: CCN(CCO)CCCC(C)Nc1ccnc2cc(Cl)ccc12 [Hydroxychloroquine] + C[C@@H](Oc1cc(-c2cnn(C3CCNCC3)c2)cnc1N)c1c(Cl)ccc(F)c1Cl [Crizotinib] (partner 1 µM)
Outline: as §1

Cell Line	relative viability ([1]; first compound 0.5 µM)	relative viability ([1]; first compound 1.581 µM)	relative viability ([1]; first compound 5 µM)	relative viability ([1]; first compound 15.81 µM)	relative viability ([1]; first compound 50 µM)	relative viability ([2]; first compound 0.5 µM)	relative viability ([2]; first compound 1.581 µM)	relative viability ([2]; first compound 5 µM)	relative viability ([2]; first compound 15.81 µM)	relative viability ([2]; first compound 50 µM)	relative viability ([3]; first compound 0.5 µM)	relative viability ([3]; first compound 1.581 µM)	relative viability ([3]; first compound 5 µM)	relative viability ([3]; first compound 15.81 µM)	relative viability ([3]; first compound 50 µM)	relative viability ([4]; first compound 0.5 µM)	relative viability ([4]; first compound 1.581 µM)	relative viability ([4]; first compound 5 µM)	relative viability ([4]; first compound 15.81 µM)	relative viability ([4]; first compound 50 µM)
NCI-H23	0.674	0.566	0.56	0.626	0.67	0.87	0.683	0.879	0.807	0.795	0.552	0.409	0.384	0.385	0.449	0.473	0.537	0.579	0.446	0.603
NCI-H322M	0.849	0.877	0.83	0.839	0.991	0.256	0.248	0.258	0.253	0.263	0.533	0.438	0.475	0.515	0.524	0.996	0.922	0.894	0.927	1.02
NCI-H358	0.695	0.731	0.72	0.673	0.655	0.177	0.131	0.139	0.144	0.155	0.32	0.274	0.281	0.327	0.328	0.515	0.579	0.587	0.516	0.591
NCI-H441	0.734	0.677	0.781	1.07	0.693	0.608	0.559	0.66	0.496	0.684	0.488	0.532	0.535	0.38	0.428	0.624	0.824	0.92	0.734	0.663
NCI-H460	0.733	0.865	0.812	0.815	0.83	0.576	0.481	0.457	0.527	0.599	0.37	0.266	0.366	0.406	0.352	0.985	0.91	0.938	0.745	0.952
NCI-H520	0.915	0.642	0.743	0.77	0.715	0.196	0.223	0.213	0.184	0.196	0.338	0.255	0.29	0.354	0.387	0.894	0.826	0.86	0.752	0.993
NCI-H596	0.612	0.765	0.523	0.398	0.587	0.56	0.587	0.59	0.655	0.591	0.386	0.406	0.32	0.367	0.399	0.918	1.04	1.05	1.05	1.01
NCI-H647	0.662	0.704	0.603	0.616	0.612	0.226	0.214	0.168	0.194	0.184	0.514	0.323	0.335	0.357	0.476	1.23	1.07	1.21	1.12	1.33
